Measured values as given in patent EP3632468B1, “5-IODO-4-THIO-2'-DEOXYURIDINE FOR USE AS A RADIOSENSITIZER IN RADIOTHERAPY” (Uniwersytet Gdanski, priority 2018, dated 2020).

What was measured:
Type in all cases: cell-based
[1] = test system: human breast cancer cells - MCF-7 line; experiment: MTT cytotoxicity assay, MCF-7; details: MCF7, light or radiation study, 100 µM ISdU, 48 h incubation, no irradiation, read-out: MCF-7 cells viability compared to the control
Protocol: (§1) Cytotoxic activity was determined using the MTT assay after incubation of MCF-7 (CLS, Eppelheim) or HDFa (Gibco Invitrogen) cells with ISdU. The MCF-7 cells were grown in RPMI supplemented with 10% FBS and antibiotics (streptomycin and penicillin) at a concentration of 100 U·mL^-1. The HDFa cells were grown in DMEM supplemented with 10% FBS and antibiotics (streptomycin and penicillin) at the same concentration. Cells at a density of 4·10^3 per well were seeded into a 96-well plate and incubated (37°C, 5% CO2) for 24 h. Then, the medium was freshly changed, and the cells were treated with ISdU at concentrations of 0 (control), 10^-4, 5·10^-5, 10^-5, 10^-6, 10^-7 and 10^-8 M. Cells were incubated with ISdU for 24 h and 48 h. After this time, the aqueous MTT salt solution at a concentration of 4 mg·mL^-1 was added to each well. After 4 h of incubation, the medium was removed and 200 µL of dimethylsulfoxide (DMSO) was added to dissolve the formazan crystals. The absorbance was measured at 570 nm (with 660 nm taken as the reference) on an EnSpire microplate reader (PerkinElmer). […] The results were analyzed with the use of GraphPad Prism software. The statistical evaluation of treated samples and untreated controls was calculated using one-way analysis of variance (ANOVA) followed by […] multiple comparison test. […]

[2] = test system: human dermal fibroblasts - HDFa line; experiment: MTT cytotoxicity assay, HDFa; details: ISdU 10^-8 to 10^-4 M, 24 h and 48 h incubation, no irradiation
Protocol: as §1

[3] = test system: MCF-7 cells (human breast cancer cells); experiment: Cytometric analysis of phosphorylation of histone H2A.X (double strand break marker); details: 10^-4 M ISdU 48 h
Protocol: One of the damages caused by ISdU are double strand break of DNA, whose molecular marker is phosphorylation of histone H2A.X. To confirm the application of the compound in radiotherapy, the cytometric analysis of phosphorylation of histone H2A.X, molecular marker of double strand break of DNA was carried out.
The MCF-7 cells (human breast cancer cells) were grown up in RPMI medium supplemented with 10 % FBS (fetal bovine serum) and antibiotics (penicillin and streptomycin) at a concertation of 100 U · ml^-1. The cells were treated with ISdU at the concentration of 10^-4 M and incubated (37°C, 5% CO2) for 48 h. Upon this time, plate cultures were X-ray irradiated with doses of 1 Gy and 2 Gy, using of e.g. Cellrad X-ray cabinet, Faxitron X-ray Corporation, and incubated for 1 h in the same condition. Next, the cells were detached with solution of Accutase (Life Technologies, UK), fixed and permeabilized (fixation and permeabilization was performed by the manufacturer's protocol FlowCellect™ Histone H2A.X Phosphorylation Assay Kit, Merck). Prepared cells were analyzed by cytometric using of e.g. Guava easyCyte™, Merck. The experiment was performed in triplicated. The non-treated cells were a control.

O=c1[nH]c(=S)c(I)cn1[C@H]1C[C@H](O)[C@@H](CO)O1 [ISdU, 5-iodo-4-thio-2'-deoxyuridine]
viability at 100 µM [1]: 91 ± 3%
HDFa cell viability [2]: a statistically significant decrease in cell viability was not observed
γH2A.X positive cells ([3]; 1 Gy X-ray, measured 1 h after irradiation (control 26.56 ± 1.14%)): 35.15 ± 1.48%
γH2A.X positive cells ([3]; 2 Gy X-ray, measured 1 h after irradiation (control 49.38 ± 3.8%)): 60.25 ± 2.98%
